Results published in the kinase profiling compilation of Christmann-Franck et al. (2016).

What was measured:
Assay in all cases: KINOMEscan competition binding
Settings in all cases: compound 10.0 µM
[1] = test system: KIT (human), P10721 [L576P]
[2] = test system: RET (human), P07949 [V804M]
[3] = test system: EGFR (human), P00533 [747-751 del / S ins]
[4] = test system: FLT3 (human), P36888 [R834Q]
[5] = test system: ABL1 (human), P00519 [Y253F]
[6] = test system: MET (human), P08581 [Y1235D]
[7] = test system: RET (human), P07949 [M918T]
[8] = test system: FLT3 (human), P36888 [D835H]
[9] = test system: EGFR (human), P00533 [T790M]
[10] = test system: EGFR (human), P00533 [T790M/L858R]
[11] = test system: EGFR (human), P00533 [752-759 del]
[12] = test system: KIT (human), P10721 [V559D/V654A]
Chain of KIT (human), P10721 [V559D/V654A] (P10721 whole entry V559D/V654A, looked up): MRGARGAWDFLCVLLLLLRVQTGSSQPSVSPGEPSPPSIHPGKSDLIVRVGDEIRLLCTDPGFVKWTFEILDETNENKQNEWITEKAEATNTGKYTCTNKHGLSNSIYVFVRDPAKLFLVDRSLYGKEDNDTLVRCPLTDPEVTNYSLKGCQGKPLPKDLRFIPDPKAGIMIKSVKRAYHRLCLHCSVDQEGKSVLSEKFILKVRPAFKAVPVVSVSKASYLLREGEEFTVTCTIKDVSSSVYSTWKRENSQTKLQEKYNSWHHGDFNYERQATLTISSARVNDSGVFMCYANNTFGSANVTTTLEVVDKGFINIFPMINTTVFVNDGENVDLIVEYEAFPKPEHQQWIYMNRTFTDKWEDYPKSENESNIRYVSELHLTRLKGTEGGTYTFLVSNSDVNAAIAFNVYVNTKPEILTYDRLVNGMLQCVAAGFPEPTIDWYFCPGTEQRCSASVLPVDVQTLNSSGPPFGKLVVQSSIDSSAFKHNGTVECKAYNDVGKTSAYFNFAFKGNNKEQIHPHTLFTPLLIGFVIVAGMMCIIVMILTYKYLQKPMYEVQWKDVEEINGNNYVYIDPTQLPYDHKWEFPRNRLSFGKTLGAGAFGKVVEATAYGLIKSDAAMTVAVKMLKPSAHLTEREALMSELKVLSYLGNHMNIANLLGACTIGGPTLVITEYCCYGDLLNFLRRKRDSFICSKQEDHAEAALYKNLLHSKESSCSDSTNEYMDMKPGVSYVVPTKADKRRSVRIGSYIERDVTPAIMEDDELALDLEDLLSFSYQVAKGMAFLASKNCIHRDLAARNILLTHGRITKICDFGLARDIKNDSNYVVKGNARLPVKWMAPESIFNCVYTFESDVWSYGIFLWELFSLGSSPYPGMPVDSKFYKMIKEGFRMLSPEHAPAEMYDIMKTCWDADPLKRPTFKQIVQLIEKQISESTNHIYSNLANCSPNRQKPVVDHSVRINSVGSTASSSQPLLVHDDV

Chain of RET (human), P07949 [M918T] (P07949 whole entry M918T, looked up): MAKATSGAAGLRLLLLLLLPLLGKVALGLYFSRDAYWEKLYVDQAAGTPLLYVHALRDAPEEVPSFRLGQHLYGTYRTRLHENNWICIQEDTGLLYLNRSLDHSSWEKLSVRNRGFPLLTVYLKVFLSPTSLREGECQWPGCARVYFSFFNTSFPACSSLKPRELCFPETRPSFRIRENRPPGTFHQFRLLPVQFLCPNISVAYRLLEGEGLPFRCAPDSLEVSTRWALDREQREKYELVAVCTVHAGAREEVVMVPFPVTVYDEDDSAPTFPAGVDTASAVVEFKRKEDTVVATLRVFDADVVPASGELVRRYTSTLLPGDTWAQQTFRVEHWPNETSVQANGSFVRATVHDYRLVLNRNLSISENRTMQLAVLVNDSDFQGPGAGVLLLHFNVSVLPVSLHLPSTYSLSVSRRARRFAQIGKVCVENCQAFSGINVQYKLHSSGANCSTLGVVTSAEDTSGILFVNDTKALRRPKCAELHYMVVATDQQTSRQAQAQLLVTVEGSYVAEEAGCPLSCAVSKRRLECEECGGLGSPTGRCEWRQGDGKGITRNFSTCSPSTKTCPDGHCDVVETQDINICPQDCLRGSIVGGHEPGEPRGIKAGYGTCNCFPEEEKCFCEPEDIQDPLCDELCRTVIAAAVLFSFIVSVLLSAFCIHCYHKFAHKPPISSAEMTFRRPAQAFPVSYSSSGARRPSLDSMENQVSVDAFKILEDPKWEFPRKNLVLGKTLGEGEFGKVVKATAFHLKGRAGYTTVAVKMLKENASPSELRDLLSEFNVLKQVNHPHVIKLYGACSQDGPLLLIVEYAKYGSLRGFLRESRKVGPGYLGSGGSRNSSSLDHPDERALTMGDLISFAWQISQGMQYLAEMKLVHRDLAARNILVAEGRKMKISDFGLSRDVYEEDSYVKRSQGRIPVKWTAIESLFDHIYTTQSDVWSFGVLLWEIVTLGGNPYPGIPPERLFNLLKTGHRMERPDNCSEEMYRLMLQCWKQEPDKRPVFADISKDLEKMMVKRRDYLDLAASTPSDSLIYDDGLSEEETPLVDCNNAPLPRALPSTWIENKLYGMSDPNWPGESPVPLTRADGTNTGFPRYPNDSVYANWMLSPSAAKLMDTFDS
Chain of KIT (human), P10721 [L576P] (P10721 whole entry L576P, looked up): as the sequence (P10721 whole entry V559D/V654A, looked up) above, with D559V, L576P, A654V counted along it
Chain of RET (human), P07949 [V804M] (P07949 whole entry V804M, looked up): as the sequence (P07949 whole entry M918T, looked up) above, with V804M, T918M counted along it

| kinase still bound, per cent of control [1] | kinase still bound, per cent of control [2] | kinase still bound, per cent of control [3] | kinase still bound, per cent of control [4] | kinase still bound, per cent of control [5] | kinase still bound, per cent of control [6] | kinase still bound, per cent of control [7] | kinase still bound, per cent of control [8] | kinase still bound, per cent of control [9] | kinase still bound, per cent of control [10] | kinase still bound, per cent of control [11] | kinase still bound, per cent of control [12] | SMILES |
| --- | --- | --- | --- | --- | --- | --- | --- | --- | --- | --- | --- | --- |
| 0% | 0% | 0% | 50% | 0.25% | 79% | 0% | 0.15% | 9.9% | 77% | 0% | 2.6% | CCN1CCN(Cc2ccc(NC(=O)c3ccc(C)c(/C=C/c4cnc5[nH]ccc5c4OC)c3)cc2C(F)(F)F)CC1 |
| – | 91% | – | 100% | – | 86% | 100% | 94% | – | – | – | – | CCOc1cc2ncc(C#N)c(Nc3ccc(OCc4ccccn4)c(Cl)c3)c2cc1NC(=O)/C=C/CN(C)C |
| 0% | 91% | 78% | 100% | – | 78% | 28% | – | – | 100% | 71% | 26% | CCCS(=O)(=O)Nc1ccc(F)c(C(=O)c2c[nH]c3ncc(-c4ccc(Cl)cc4)cc23)c1F |
| 33% | 71% | 90% | 8.4% | 62% | 100% | 100% | 5.4% | 68% | 100% | 82% | 44% | C=CC(=O)Nc1cccc(Nc2nc(N[C@H]3CC[C@H](N(C)C)CC3)nc3c2ncn3C(C)C)c1 |
| 85% | 100% | 50% | 79% | 99% | 24% | 73% | 82% | 68% | 100% | 55% | 100% | CNC(=O)Nc1ccc(-c2nc(N3CC4CCC(C3)O4)c3cnn(C4CCC5(CC4)OCCO5)c3n2)cc1 |
| 81% | 100% | 41% | 100% | 97% | 100% | 100% | 59% | 27% | 68% | 53% | 100% | C=CC(=O)Nc1ccc(C(=O)c2sc(Nc3ccc(N4CCN(C)CC4)cc3OC)nc2N)cc1 |
| 51% | 100% | 67% | 32% | 87% | 98% | 79% | 16% | 100% | 100% | 70% | 100% | Nc1ccc(-c2ccc3ncc4ccc(=O)n(-c5cccc(C(F)(F)F)c5)c4c3c2)cn1 |
| 75% | 100% | 51% | 78% | – | 100% | 79% | 87% | 77% | 100% | 70% | 100% | O=C(NOC[C@H](O)CO)c1ccc(F)c(F)c1Nc1ccc(I)cc1F |
| 17% | 100% | 79% | 58% | 84% | 14% | 100% | 21% | 86% | 97% | 87% | 42% | N#Cc1cc(-c2ccnc(Nc3ccc(-n4cnc(-c5cccnc5)n4)cc3)n2)cc(N2CCOCC2)c1 |
| – | 100% | 100% | 100% | 100% | 100% | 100% | 100% | 50% | 100% | 100% | 100% | Cc1ccc2nc(NCCN)c3ncc(C)n3c2c1 |
| 60% | 89% | – | 100% | – | 51% | 54% | – | 50% | – | 34% | 60% | O=C(O)c1ccc(Nc2ncc3c(n2)-c2ccc(Cl)cc2C(c2c(F)cccc2F)=NC3)cc1 |
| 2.3% | 100% | 100% | 100% | 63% | 100% | 100% | 100% | 100% | 97% | 100% | 23% | C=CC(=O)Nc1cc(NC(=O)c2ccc(C)c(NC(=O)c3ccno3)c2)cc(C(F)(F)F)c1 |
| 79% | 92% | – | 88% | 95% | 71% | 95% | 84% | – | – | – | 100% | N#Cc1c(NC(=O)c2cccc3ccccc23)sc2c1CCCC2 |
| 24% | 14% | – | 61% | 59% | 58% | – | 22% | 39% | 60% | 87% | – | CC(=O)c1c(C)c2cnc(Nc3ccc(N4CCNCC4)cn3)nc2n(C2CCCC2)c1=O |
| 33% | 88% | – | 68% | 100% | 88% | 100% | 83% | – | – | – | 100% | N#C/C(=C1/Nc2ccccc2S1)c1ccnc(NCCc2cccnc2)n1 |
| 0% | 5.5% | – | 14% | 28% | 30% | 0.2% | 4% | – | – | – | – | CCN(CCO)CCCOc1ccc2c(Nc3cc(CC(=O)Nc4cccc(F)c4)[nH]n3)ncnc2c1 |

| SMILES | kinase still bound, per cent of control [1] | kinase still bound, per cent of control [2] | kinase still bound, per cent of control [3] | kinase still bound, per cent of control [4] | kinase still bound, per cent of control [5] | kinase still bound, per cent of control [6] | kinase still bound, per cent of control [7] | kinase still bound, per cent of control [8] | kinase still bound, per cent of control [9] | kinase still bound, per cent of control [10] | kinase still bound, per cent of control [11] | kinase still bound, per cent of control [12] |
| --- | --- | --- | --- | --- | --- | --- | --- | --- | --- | --- | --- | --- |
| Cc1ccc(NC(=O)c2cccc(C(C)(C)C#N)c2)cc1Nc1ccc2ncn(C)c(=O)c2c1 | 0.55% | 0.15% | 14% | 100% | 1.4% | 100% | 0.4% | 60% | 79% | 99% | 17% | 1.2% |
| COc1cc2c(Nc3ccc(NC(=O)c4ccccc4)cc3)ncnc2cc1OCCCN1CCOCC1 | 0% | 12% | 26% | 34% | 35% | – | 0.1% | 13% | 42% | 85% | 14% | 5.8% |
